Source: patent publication US8470828B2, “Anellated pyridine compounds” (Hoffmann-La Roche Inc., priority 2010, dated 2013)

Experiments:
[1] = molecular target: T1, human D2 receptor (Homo sapiens, UniProt P14416); test: Radioligand binding to cloned human D2 receptor expressed in HEK-293 EBNA cells ([3H]-spiperone); conditions: HEK293 EBNA cell membranes, approximately 0.7 nM [3H]-spiperone, 1 h at RT
T1 construct: expressed in transfected cells; host or cells: HEK293 EBNA cells, transient transfection; membrane preparation

[2] = molecular target: human D3 receptor (Homo sapiens, UniProt P35462); test: Radioligand binding to cloned human D3 receptor expressed in HEK-293 EBNA cells ([3H]-spiperone)
[3] = molecular target: human 5-HT2A receptor (Homo sapiens, UniProt P28223); test: Radioligand binding to cloned human 5-HT2A receptor expressed in HEK-293 EBNA cells ([3H]-ketanserin)
human 5-HT2A receptor, sequence (P28223 whole entry): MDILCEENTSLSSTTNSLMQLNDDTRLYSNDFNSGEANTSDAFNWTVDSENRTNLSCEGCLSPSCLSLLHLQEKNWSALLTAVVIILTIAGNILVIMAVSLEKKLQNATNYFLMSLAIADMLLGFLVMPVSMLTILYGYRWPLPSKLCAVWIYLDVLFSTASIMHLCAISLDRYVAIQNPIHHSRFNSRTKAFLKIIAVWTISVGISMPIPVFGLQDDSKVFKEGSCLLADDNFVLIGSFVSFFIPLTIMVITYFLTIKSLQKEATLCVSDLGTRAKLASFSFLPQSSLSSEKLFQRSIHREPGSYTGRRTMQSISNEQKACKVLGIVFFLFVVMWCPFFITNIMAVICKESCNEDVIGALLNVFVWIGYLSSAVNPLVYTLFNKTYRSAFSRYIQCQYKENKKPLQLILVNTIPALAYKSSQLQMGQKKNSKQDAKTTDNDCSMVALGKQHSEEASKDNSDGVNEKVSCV

T1 sequence (P14416 whole entry): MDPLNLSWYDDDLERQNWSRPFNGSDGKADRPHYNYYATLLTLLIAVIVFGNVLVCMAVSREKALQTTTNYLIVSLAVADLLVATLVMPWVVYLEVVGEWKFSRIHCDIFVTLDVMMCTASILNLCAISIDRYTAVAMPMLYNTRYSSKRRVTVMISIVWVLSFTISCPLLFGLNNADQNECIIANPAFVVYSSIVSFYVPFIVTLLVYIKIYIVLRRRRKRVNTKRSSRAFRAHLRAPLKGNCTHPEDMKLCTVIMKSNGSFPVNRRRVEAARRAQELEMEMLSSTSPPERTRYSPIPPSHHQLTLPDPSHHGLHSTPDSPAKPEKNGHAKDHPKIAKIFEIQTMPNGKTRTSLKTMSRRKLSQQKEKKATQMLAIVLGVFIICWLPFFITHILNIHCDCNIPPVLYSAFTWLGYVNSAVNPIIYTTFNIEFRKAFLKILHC
human D3 receptor, sequence (P35462 whole entry): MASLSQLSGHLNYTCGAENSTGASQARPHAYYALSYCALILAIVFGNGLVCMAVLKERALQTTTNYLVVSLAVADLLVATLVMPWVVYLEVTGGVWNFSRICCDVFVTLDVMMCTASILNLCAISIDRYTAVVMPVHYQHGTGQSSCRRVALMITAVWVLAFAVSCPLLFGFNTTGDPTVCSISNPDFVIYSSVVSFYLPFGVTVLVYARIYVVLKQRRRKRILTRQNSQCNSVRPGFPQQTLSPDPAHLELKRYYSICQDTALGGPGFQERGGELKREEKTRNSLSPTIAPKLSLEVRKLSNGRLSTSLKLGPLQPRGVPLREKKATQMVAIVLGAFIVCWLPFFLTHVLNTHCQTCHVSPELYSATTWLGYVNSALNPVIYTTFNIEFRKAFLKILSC

## O=C(N[C@H]1CC[C@H](CCN2CCN(c3nccc4c3OCC4)CC2)CC1)C(F)(F)F [Example 50, trans-N-(4-{2-[4-(2,3-Dihydro-furo[2,3-c]pyridin-7-yl)-piperazin-1-yl]-ethyl}-cyclohexyl)-2,2,2-trifluoro-acetamide]
[1]
  Ki: 551 nM
other
  melting point: 198.5 °C
[2]
  Ki: 29.5 nM
[3]
  Ki: 45.7 nM

## O=C(N[C@H]1CC[C@H](CCN2CCN(c3nccc4ccoc34)CC2)CC1)C1CCOCC1 [Example 11, Tetrahydro-pyran-4-carboxylic acid trans-{4-[2-(4-furo[2,3-c]pyridin-7-yl-piperazin-1-yl)-ethyl]-cyclohexyl}-amide]
[1]
  Ki: 511 nM
other
  melting point: 211 °C
[2]
  Ki: 22.6 nM
[3]
  Ki: 7.29 nM

## N#CCC(=O)N[C@H]1CC[C@H](CCN2CCN(c3nccc4c3OCC4)CC2)CC1 [Example 31, trans-2-Cyano-N-(4-{2-[4-(2,3-dihydro-furo[2,3-c]pyridin-7-yl)-piperazin-1-yl]-ethyl}-cyclohexyl)-acetamide]
[1]
  Ki: 137 nM
other
  melting point: 215.5 °C
[2]
  Ki: 2.19 nM
[3]
  Ki: 29.7 nM

## O=C(N[C@H]1CC[C@H](CCN2CCN(c3nccc4c3OCC4)CC2)CC1)C1CCCO1 (mixture of isomers) [Example 82, (RS)-Tetrahydro-furan-2-carboxylic acid trans-(4-{2-[4-(2,3-dihydro-furo[2,3-c]pyridin-7-yl)-piperazin-1-yl]-ethyl}-cyclohexyl)-amide]
[1]
  Ki: 1140 nM
other
  melting point: 145 °C
[2]
  Ki: 72.8 nM
[3]
  Ki: 20.4 nM

## O=C(N[C@H]1CC[C@H](CCN2CCN(c3nccc4c3OCC4)CC2)CC1)c1cnc(N2CCOCC2)cn1 [Example 78, 5-Morpholin-4-yl-pyrazine-2-carboxylic acid trans-(4-{2-[4-(2,3-dihydro-furo[2,3-c]pyridin-7-yl)-piperazin-1-yl]-ethyl}-cyclohexyl)-amide]
[1]
  Ki: 670 nM
other
  melting point: 200.5 °C
[2]
  Ki: 42.5 nM
[3]
  Ki: 29.6 nM

## CC(C)(C)Oc1ccc(C(=O)N[C@H]2CC[C@H](CCN3CCN(c4nccc5c4OCC5)CC3)CC2)cc1 [Example 76, trans-4-tert-Butoxy-N-(4-{2-[4-(2,3-dihydro-furo[2,3-c]pyridin-7-yl)-piperazin-1-yl]-ethyl}-cyclohexyl)-benzamide]
[1]
  Ki: 814 nM
other
  melting point: 168.5 °C
[2]
  Ki: 33.3 nM
[3]
  Ki: 44.3 nM

## CO[C@H](C)C(=O)N[C@H]1CC[C@H](CCN2CCN(c3nccc4c3OCC4)CC2)CC1 [Example 100, trans-(R)—N-(4-{2-[4-(2,3-Dihydro-furo[2,3-c]pyridin-7-yl)-piperazin-1-yl]-ethyl}-cyclohexyl)-2-methoxy-propionamide]
[1]
  Ki: 714 nM
other
  melting point: 170.5 °C
[2]
  Ki: 30.9 nM
[3]
  Ki: 22.9 nM

## O=C(N[C@H]1CC[C@H](CCN2CCN(c3nccc4c3OCC4)CC2)CC1)C1CCOC1 (stereo partly drawn) [Example 34, Tetrahydro-furan-3-carboxylic acid trans-(4-{2-[4-(2,3-dihydro-furo[2,3-c]pyridin-7-yl)-piperazin-1-yl]-ethyl}-cyclohexyl)-amide]
[1]
  Ki: 172 nM
other
  melting point: 195 °C
[2]
  Ki: 7.43 nM
[3]
  Ki: 28 nM

## O=C(N[C@H]1CC[C@H](CCN2CCN(c3nccc4c3OCC4)CC2)CC1)c1ccc(-n2cccc2)cc1 [Example 66, trans-N-(4-{2-[4-(2,3-Dihydro-furo[2,3-c]pyridin-7-yl)-piperazin-1-yl]-ethyl}-cyclohexyl)-4-pyrrol-1-yl-benzamide]
[1]
  Ki: 240 nM
other
  melting point: 236.5 °C
[2]
  Ki: 13.8 nM
[3]
  Ki: 38 nM

## O=C(N[C@H]1CC[C@H](CCN2CCN(c3nccc4c3OCC4)CC2)CC1)C1CCOCC1 [Example 7, trans-Tetrahydro-pyran-4-carboxylic acid (4-{2-[4-(2,3-dihydro-furo[2,3-c]pyridin-7-yl)-piperazin-1-yl]-ethyl}-cyclohexyl)-amide]
[1]
  Ki: 354 nM
other
  melting point: 236.5 °C
[2]
  Ki: 13.1 nM
[3]
  Ki: 15.6 nM

## CC(C)(O)CC(=O)N[C@H]1CC[C@H](CCN2CCN(c3nccc4c3OCC4)CC2)CC1 [Example 46, trans-N-(4-{2-[4-(2,3-Dihydro-furo[2,3-c]pyridin-7-yl)-piperazin-1-yl]-ethyl}-cyclohexyl)-3-hydroxy-3-methyl-butyramide]
[1]
  Ki: 904 nM
other
  melting point: 139 °C
[2]
  Ki: 14 nM
[3]
  Ki: 49.6 nM
